# Earlier results, collected in patent US8637688B2, “Topical dosage form comprising tri-substituted glycerol compounds” (priority 2006, dated 2014).
# How the values were obtained:
# [1] = test system: cutaneous metastases from breast cancer; conditions: 6% solution, topical, average dose rate 0.3 mg/cm^2 skin area
# [2] = 6% solution, topical
structure (smiles),measurement,setting,value
"CCCCCCCCCCCCCCCCOP(=O)([O-])OCC[N+](C)(C)C [miltefosine, hexadecylphosphocholine]",patients treated who showed a beneficial response to the medicament,[1],about one third
same,"skin irritations (redness, itching, cauterization or the like) shortly upon administration",[2],significant skin irritations
